From patent US20250114294A1, “COMPOSITIONS SUITABLE FOR USE IN SKIN CARE” (Johnson & Johnson Consumer Inc., priority 2023, published 2025)

Tests used:
Assay type in all cases: cell-based, human
[1] = test system: aquaporin-3 (AQP3); assay: AQP3 gene expression (TaqMan qPCR) in EpiDerm Full Thickness skin equivalents; conditions: EFT-400 skin equivalents, 4 μL topical, 24 hours, normalized to POLR2A, vs PgETOH vehicle
Description: (§1) EpiDerm Full Thickness Skin 3D Equivalents (EFT-400) were purchased from MatTek Corporation (Ashland, MA 01721; lot number 34272, kit N & kit P). Upon receipt the skin equivalents were transferred in new 6-well plates (MatTek Corporation, Ashland, MA 01721) with 2.5 mL of EFT-400 medium (MatTek Corportion, Ashland, MA) and equilibrated overnight.
(§2) The following day, skin equivalents were treated topically with 4 μL of the following treatments: Vehicle, 0.04% Retinol, 0.04% Retinol +0.05% Myrrh resin extract, or 0.04% Retinol +0.1% Myrrh resin extract.
(§3) Propylene glycol/ethanol (PgETOH) (3:7) (w/w) was used as a vehicle. Retinol (BASF 50C) was diluted in PgETOH to a stock concentration of 0.4%. 0.4% Retinol was further diluted to make 0.08% Retinol. Since Retinol is 50% active, the percent active Retinol in the final treatment solution was 0.04% Retinol. Myrrh resin extract (Firmenich) was weighed out to 16.1 mg and diluted in 1.6 mL of PgETOH for a 1% Myrrh resin extract stock solution.
(§4) To make the 0.04% Retinol+0.1% Myrrh resin extract treatment solution combine 100 μL of the 0.4% retinol stock solution, 50 μL of the 1% Myrrh resin extract stock solution, and 350 μL of PgETOH. […]
(§5) The fold changes were calculated in comparison to the vehicle control and two-tailed two-sample Student t-tests (Microsoft Office Excel 2007; Microsoft, Redmond, WA, USA) were performed. […]

[2] = test system: cellular retinoic acid binding protein 2 (CRABP2); assay: CRABP2 gene expression (TaqMan qPCR) in EpiDerm Full Thickness skin equivalents; conditions: EFT-400 skin equivalents, 4 μL topical, 24 hours, normalized to POLR2A, vs PgETOH vehicle
Description: as §1, §2, §3, §4, §5

[3] = test system: interleukin-8 (IL8); assay: IL8 gene expression (TaqMan qPCR) in EpiDerm Full Thickness skin equivalents; conditions: EFT-400 skin equivalents, 4 μL topical, 24 hours, normalized to POLR2A, vs PgETOH vehicle; irritation marker
Description: as §1, §2, §3, §4, §5

CC1=C(/C=C/C(C)=C/C=C/C(C)=C/CO)C(C)(C)CCC1 [Sample 2, Retinol]
AQP3 Average fold change over untreated [1]: 1.82
CRABP2 Average fold change over untreated [2]: 2.22
IL8 Average fold change over untreated [3]: 1.22
